Laboratory results published in US5462935A, “Cephalosporin compounds” (Lucky Limited, priority 1990, dated 1995).
In brackets after ≈: the same amount, converted by molar mass.

Key:
[1] = acute toxicity test, intravenous; settings: mouse, in vivo, ICR mice, observed for 14 days
From the text: The results are shown in the last row of Table 2.

[2] = test system: Enterobacter aerogenes ATCC 29751; assay: minimal inhibitory concentration, two-fold agar dilution; format: cell-based; settings: Klebsiella aerogenes, ATCC29751, 20 h
Protocol: (§1) These NIC values were taken by employing a two-fold dilution method: that is, two-fold serial dilutions of each of the test compounds were made and dispersed in a Muller-Hinton agar medium; 2 μl of the standard test strain which had the 10^7 CFU (Colony Forming Unit) per ml was inoculated on the medium; and these were incubated at 37° C. for 20 hours.

[3] = test system: Bacillus megaterium ATCC 9885; assay: as above; format: cell-based; settings: Priestia megaterium, ATCC9885, 20 h
Protocol: as §1

[4] = test system: Salmonella typhimurium ATCC 14028; assay: as above; format: cell-based; settings: Salmonella enterica, Muller-Hinton agar, 37° C., 20 hours
Protocol: as §1

[5] = test system: Bacillus cereus ATCC 11778; assay: as above; format: cell-based; settings: Bacillus cereus, ATCC11778, 20 h
Protocol: as §1

[6] = test system: Acinetobacter calcoaceticus ATCC 15473; assay: as above; format: cell-based; settings: ATCC15473, Muller-Hinton agar, 37° C., 20 hours
Protocol: as §1

[7] = test system: Pseudomonas aeruginosa ATCC 25619; assay: as above; format: cell-based; settings: ATCC25619, Muller-Hinton agar, 37° C., 20 hours
Protocol: as §1

[8] = test system: Citrobacter freundii ATCC 8090; assay: as above; format: cell-based; settings: ATCC8090, Muller-Hinton agar, 37° C., 20 hours
Protocol: as §1

[9] = test system: Shigella sonnei ATCC 11060; assay: as above; format: cell-based; settings: ATCC11060, Muller-Hinton agar, 37° C., 20 hours
Protocol: as §1

[10] = test system: Serratia marcescens ATCC 27117; assay: as above; format: cell-based; settings: ATCC27117, Muller-Hinton agar, 37° C., 20 hours
Protocol: as §1

[11] = test system: Escherichia coli ATCC 25922; assay: as above; format: cell-based; settings: ATCC25922, Muller-Hinton agar, 37° C., 20 hours
Protocol: as §1

[12] = test system: Shigella flexneri ATCC 11836; assay: as above; format: cell-based; settings: ATCC11836, Muller-Hinton agar, 37° C., 20 hours
Protocol: as §1

[13] = test system: Escherichia coli ATCC 10536; assay: as above; format: cell-based; settings: ATCC10536, Muller-Hinton agar, 37° C., 20 hours
Protocol: as §1

[14] = test system: Staphylococcus aureus ATCC 6638p; assay: as above; format: cell-based; settings: ATCC6638P, 20 h
Protocol: as §1

[15] = test system: Pseudomonas aerugionsa ATCC 27853; assay: as above; format: cell-based; settings: ATCC27853, Muller-Hinton agar, 37° C., 20 hours
Protocol: as §1

[16] = test system: Enterobacter cloacae ATCC 27508; assay: as above; format: cell-based; settings: ATCC27508, Muller-Hinton agar, 37° C., 20 hours
Protocol: as §1

[17] = test system: Micrococcus luteus ATCC 9341; assay: as above; format: cell-based; settings: ATCC9341, Muller-Hinton agar, 37° C., 20 hours
Protocol: as §1

[18] = test system: Pseudomonas aerugionsa ATCC 10145; assay: as above; format: cell-based; settings: ATCC10145, Muller-Hinton agar, 37° C., 20 hours
Protocol: as §1

[19] = test system: Proteus mirabilis ATCC 25933; assay: as above; format: cell-based; settings: ATCC25933, Muller-Hinton agar, 37° C., 20 hours
Protocol: as §1

[20] = test system: Proteus vulgaris ATCC 6059; assay: as above; format: cell-based; settings: ATCC6059, Muller-Hinton agar, 37° C., 20 hours
Protocol: as §1

[21] = test system: Providencia rettgeri ATCC 9250; assay: as above; format: cell-based; settings: ATCC9250, Muller-Hinton agar, 37° C., 20 hours
Protocol: as §1

[22] = test system: Morganella morganii ATCC 8076h; assay: as above; format: cell-based; settings: ATCC8076H, 20 h
Protocol: as §1

[23] = test system: Staphylococcus epidermidis ATCC 10537; assay: as above; format: cell-based; settings: ATCC10537, Muller-Hinton agar, 37° C., 20 hours
Protocol: as §1

ATCC 12228 = assay: as above; format: cell-based; settings: Staphylococcus faecalis, ATCC12228, 20 h
Protocol: as §1

[24] = test system: Klebsiella pneumoniae ATCC 10031; assay: as above; format: cell-based; settings: ATCC10031, Muller-Hinton agar, 37° C., 20 hours
Protocol: as §1

[25] = test system: Streptococcus faecalis ATCC 29212; assay: as above; format: cell-based; settings: Enterococcus faecalis, ATCC29212, Muller-Hinton agar, 37° C., 20 hours
Protocol: as §1

SMILES | LD50 at 336 h [1] [mg/kg] | MIC [2] [µg/mL] | MIC [3] [µg/mL] | MIC [4] [µg/mL] | MIC [5] [µg/mL] | MIC [6] [µg/mL] | MIC [7] [µg/mL] | MIC [8] [µg/mL] | MIC [9] [µg/mL] | MIC [10] [µg/mL] | MIC [11] [µg/mL] | MIC [12] [µg/mL] | MIC [13] [µg/mL] | MIC [14] [µg/mL] | MIC [15] [µg/mL] | MIC [16] [µg/mL] | MIC [17] [µg/mL] | MIC [18] [µg/mL] | MIC [19] [µg/mL] | MIC [20] [µg/mL] | other results
C[C@@H](O/N=C(\C(=O)NC1C(=O)N2C(C(=O)[O-])=C(CSc3nc(N)cc(N)[n+]3C)CS[C@H]12)c1csc(N)n1)C(=O)O (stereo partly drawn) [I-R-2, 7-[(Z)-2-(2-aminothiazol-4-yl)-2-[(R)-1-carboxyeth-1-oxyimino]acetamido]-3-[(4,6-diamino-1-methylpyrimidinium-2-yl)thiomethyl]-3-cephem-4-carboxylate] | > 3000 | 1 (≈ 1.64 µM) | 1 (≈ 1.64 µM) | 0.13 (≈ 0.213 µM) | > 128 | 4 (≈ 6.56 µM) | 2 (≈ 3.28 µM) | 0.063 (≈ 0.103 µM) | 0.031 (≈ 0.0508 µM) | 0.063 (≈ 0.103 µM) | 0.031 (≈ 0.0508 µM) | 0.031 (≈ 0.0508 µM) | 0.063 (≈ 0.103 µM) | 4 (≈ 6.56 µM) | 1 (≈ 1.64 µM) | 0.016 (≈ 0.0262 µM) | 0.5 (≈ 0.82 µM) | 2 (≈ 3.28 µM) | 0.031 (≈ 0.0508 µM) | 0.031 (≈ 0.0508 µM) | MIC [21]: ≤ 0.008 µg/mL; MIC [22]: ≤ 0.008 µg/mL; MIC [23]: 2 µg/mL (≈ 3.28 µM); MIC (ATCC 12228): 2 µg/mL (≈ 3.28 µM); MIC [24]: 0.031 µg/mL (≈ 0.0508 µM); MIC [25]: > 128 µg/mL
Cc1c(N)nc(SCC2=C(C(=O)[O-])N3C(=O)C(NC(=O)/C(=N\O[C@@H](C)C(=O)O)c4csc(N)n4)C3SC2)[n+](C)c1N (stereo partly drawn) [I-S-6, 7-[(Z)-2-(2-aminothiazol-4-yl)-2-[(S)-1-carboxyeth-1-oxyimino]acetamido]-3-[(4,6-diamino-1,5-dimethylpyrimidinium-2-yl)thiomethyl]-3-cephem-4-carboxylate] | > 3000 | 0.5 (≈ 0.802 µM) | 0.25 (≈ 0.401 µM) | 0.13 (≈ 0.208 µM) | 64 (≈ 103 µM) | 4 (≈ 6.41 µM) | 1 (≈ 1.6 µM) | 0.016 (≈ 0.0257 µM) | 0.031 (≈ 0.0497 µM) | 0.13 (≈ 0.208 µM) | 0.031 (≈ 0.0497 µM) | 0.016 (≈ 0.0257 µM) | 0.031 (≈ 0.0497 µM) | 4 (≈ 6.41 µM) | 1 (≈ 1.6 µM) | ≤ 0.008 | 0.25 (≈ 0.401 µM) | 2 (≈ 3.21 µM) | 0.031 (≈ 0.0497 µM) | 0.031 (≈ 0.0497 µM) | MIC [21]: ≤ 0.008 µg/mL; MIC [22]: ≤ 0.008 µg/mL; MIC [23]: 2 µg/mL (≈ 3.21 µM); MIC (ATCC 12228): 1 µg/mL (≈ 1.6 µM); MIC [24]: 0.031 µg/mL (≈ 0.0497 µM); MIC [25]: > 128 µg/mL
Cc1c(N)nc(SCC2=C(C(=O)[O-])N3C(=O)C(NC(=O)/C(=N\O[C@H](C)C(=O)O)c4csc(N)n4)[C@H]3SC2)[n+](N)c1N (stereo partly drawn) [I-R-7, 7-[(Z)-2-(2-aminothiazol-4-yl)-2-[(R)-1-carboxyeth-1-oxyimino]acetamido]-3-[(5-methyl-1,4,6-triaminopyrimidinium-2-yl)thiomethyl]-3-cephem-4-carboxylate] | > 5000 | 2 (≈ 3.2 µM) | 0.5 (≈ 0.8 µM) | 0.25 (≈ 0.4 µM) | 128 (≈ 205 µM) | 4 (≈ 6.4 µM) | 2 (≈ 3.2 µM) | 0.13 (≈ 0.208 µM) | 0.063 (≈ 0.101 µM) | 0.13 (≈ 0.208 µM) | 0.063 (≈ 0.101 µM) | 0.031 (≈ 0.0496 µM) | 0.063 (≈ 0.101 µM) | 4 (≈ 6.4 µM) | 2 (≈ 3.2 µM) | 0.063 (≈ 0.101 µM) | 0.5 (≈ 0.8 µM) | 2 (≈ 3.2 µM) | 0.031 (≈ 0.0496 µM) | 0.063 (≈ 0.101 µM) | MIC [21]: ≤ 0.008 µg/mL; MIC [22]: ≤ 0.008 µg/mL; MIC [23]: 2 µg/mL (≈ 3.2 µM); MIC (ATCC 12228): 2 µg/mL (≈ 3.2 µM); MIC [24]: 0.063 µg/mL (≈ 0.101 µM); MIC [25]: > 128 µg/mL
